Patent US4665074A, “6-(polyfluoroalkoxyphenyl) pyridazinones, their compositions, synthesis and use” (Byk Gulden Lomberg Chemische Fabrik GmbH, priority 1984, dated 1987)

Experiments:
[1] = system: acetylcholine-induced bronchospasm; assay: Protective action against acetylcholine-induced bronchospasm in conscious guinea pigs; type: in vivo, guinea pig; conditions: 100 μmol/kg p.o.; test 30 min after application; acetylcholine mist 0.06%
Description: Guinea pigs (250-350 g) in a closed Plexiglas cylinder (volume: 5 l) are exposed to a mist of acetylcholine (0.06% in 0.9% sodium chloride solution; Heyer Use 77 ultrasonic atomizer) twice at an interval of 20 minutes. The time from the start of atomization until there is onset of a marked struggle to breathe (in certain circumstances, a hypoxic convulsion in the lateral position) is measured and designated the latency perid. […] The test substance is administered orally by gavage (standard dose 100 μmol/kg, volume 1 ml of 4% strength methocel suspension in 0.9% strength sodium chloride solution/kg). After 30 minutes, the animals are again exposed to the mist of acetylcholine, and the latency periods are measured. A prolongation of the latency period to […] is regarded as a protective action.

[2] = system: electrically-stimulated left atrium of the rat; assay: Positive inotropic action in vitro on electrically-stimulated left atrium; type: cell-based; conditions: for EC40: Rattus norvegicus, read-out: -lg(EC40pot.) left atrium (converted); for EC40 / -lg(EC40pot.) left atrium: EC40pot. in mol/l, 40% increase in contraction force vs initial value, 31°; for (EC40pot.)theophylline /(EC40pot.)substance: activity on left atrium relative to theophylline
Description: Testing the positive inotropic action of the compounds in vitro on the electrically-stimulated left atrium of the rat is effected as follows:
Isometric contractions (HSE force sensor K-30; Watanabe recorder, Linear Corder Mark 5) of isolated left atria of rats (.male., 250-300 g) in an organ bath (10 ml, Tyrode nutrient solution, 31°, gassing with carbogen, initial tension of the organs 0.25 g) with electric stimulation (HSE stimulator, 7 V, 3 ms, 2 Hz) are recorded. After an equilibration period of 30 minutes, a dose-dependent increase in the contraction force is brought about by administration of the test substance in concentrations which increase semilogarithmically and cumulatively (for example 1×10^-6 +2×10^-6 +7×10^-6 +2×10^-5etc. mol/l), a constant inotropic response being waited for after each individual dose of the test substance before the next higher concentration is administered. The particular increase in the contraction force is expressed as a % of the initial value before administration of the substance. The concentration of the test substance which potentiates the contraction force of the atrium by 40% compared with the initial value (EC40pot.mol/l), expressed by the negative logarithm of (EC40pot.mol/l): -1 g(EC40pot.), serves as a measure of the cardiotonic activity.
(§1) The measure used for the organ-selective activity is the ratio between (EC40pot.) left atrium and (EC50)trachea. As a measure of the activity, the ratios between (EC50)trachea values and (EC40pot.)left atrium values of theophylline and the tested compound are given.

[3] = system: isolated, spontaneously contracted chain of tracheal rings of the guinea pig; assay: Bronchospasmolytic action in vitro on chain of tracheal rings (relaxation of spontaneous tonic contraction); type: cell-based; conditions: for EC50: Cavia porcellus, read-out: -lg(EC50) trachea (converted); for EC50 / -lg(EC50) trachea: EC50 in mol/l, 50% of maximum relaxation achieved by (-)isoprenaline 10^-6 mol/l, 37°; for (EC50)theophylline / (EC50)substance: activity on trachea relative to theophylline; for (EC40pot.) left atrium / (EC50)trachea: organ-selectivity ratio, rat left atrium vs guinea pig trachea
Description: To test the bronchospasmolytic action of the compounds in vitro on a chain of tracheal rings of the guinea pig, such tracheal rings are subjected to the following procedure:
Four parallel chains of tracheal rings (each consisting of 6 individual rings) of guinea pigs (.male. and .female., 430-600 g) in an organ bath [5 ml, Krebs-Henseleit solution with added phentolamine (10^-5 mol/l), 37°, initial tension of the organs 2 g, gassing with carbogen] develop a stable, spontaneous tonic contraction after about 20 to 30 minutes. […] Over a period of from 20 to 30 minutes, a complete dose/action curve of the test substance is thus obtained. The particular relaxation is expressed as a percentage fraction of the maximum relaxation achieved by administration of (-)isoprenaline (10^-6 mol/l).
as §1

COc1cc(-c2ccc(=O)[nH]n2)ccc1OC(F)F [compound 5]
Tripling of the latency period in N of 10 animals [1]: 9 of 10 animals | EC40 [2]: 0.871 µM | (EC40pot.)theophylline /(EC40pot.)substance [2]: 469 | EC50 [3]: 1.23 µM | (EC50)theophylline / (EC50)substance [3]: 110 | (EC40pot.) left atrium / (EC50)trachea [3]: 0.7

O=c1ccc(-c2cccc(OC(F)(F)C(F)F)c2)n[nH]1 [Serial No. 2, 6-[3-(1,1,2,2-tetrafluoroethoxy)phenyl]-3[2H]pyridazinone]
Tripling of the latency period in N of 10 animals [1]: 8 of 10 animals

6-(4-difluoromethoxy-3-methoxyphenyl)-3[2H]pyridazinone [Serial No. 5]
Tripling of the latency period in N of 10 animals [1]: 7 of 10 animals | -lg(EC40pot.) left atrium [2]: 5.76 | (EC40pot.)theophylline /(EC40pot.)substance [2]: 240 | -lg(EC50) trachea [3]: 5.80 | (EC50)theophylline / (EC50)substance [3]: 85 | (EC40pot.) left atrium / (EC50)trachea [3]: 1.1

O=c1ccc(-c2ccc(OC(F)F)cc2)n[nH]1 [compound 6]
Tripling of the latency period in N of 10 animals [1]: 8 of 10 animals | EC40 [2]: 32.4 µM | (EC40pot.)theophylline /(EC40pot.)substance [2]: 12.9 | EC50 [3]: 12 µM | (EC50)theophylline / (EC50)substance [3]: 11.2 | (EC40pot.) left atrium / (EC50)trachea [3]: 2.7

O=c1ccc(-c2ccc(OC(F)(F)C(F)F)cc2)n[nH]1 [Serial No. 3, 6-[4-(1,1,2,2-tetrafluoroethoxy)phenyl]-3[2H]pyridazinone]
EC40 [2]: 61.7 µM | (EC40pot.)theophylline /(EC40pot.)substance [2]: 6.8 | EC50 [3]: 9.12 µM | (EC50)theophylline / (EC50)substance [3]: 13.2 | (EC40pot.) left atrium / (EC50)trachea [3]: 6.8

O=c1ccc(-c2cccc(OC(F)F)c2)n[nH]1 [compound 7]
Tripling of the latency period in N of 10 animals [1]: 9 of 10 animals | EC40 [2]: > 100 µM | EC50 [3]: 14.5 µM | (EC50)theophylline / (EC50)substance [3]: 9.3 | (EC40pot.) left atrium / (EC50)trachea [3]: > 6.9

Cn1c(=O)c2[nH]cnc2n(C)c1=O [Theophylline, theophylline, reference compound]
Tripling of the latency period in N of 10 animals [1]: 3 of 10 animals | EC40 [2]: 417 µM | EC50 [3]: 135 µM | (EC40pot.) left atrium / (EC50)trachea [3]: 3.1

O=c1ccc(-c2ccc(OC(F)(F)F)cc2)n[nH]1 [Serial No. 1, 6-(4-trifluoromethoxyphenyl)-3[2H]pyridazinone]
-lg(EC40pot.) left atrium [2]: 4.0 | -lg(EC40pot.) left atrium ([2]; listed as 2): 4.66 | (EC40pot.)theophylline /(EC40pot.)substance [2]: 4.2 | (EC40pot.)theophylline /(EC40pot.)substance ([2]; listed as 2): 19 | -lg(EC50) trachea [3]: 4.60 | -lg(EC50) trachea ([3]; listed as 2): 5.11 | (EC50)theophylline / (EC50)substance [3]: 5.4 | (EC50)theophylline / (EC50)substance ([3]; listed as 2): 17.4 | (EC40pot.) left atrium / (EC50)trachea [3]: 4.0 | (EC40pot.) left atrium / (EC50)trachea ([3]; listed as 2): 2.8
